Test results: patent EP1000543A1, “A method for inducing resistance of plants to mycotoxin-producing fungi” (PROGUARD, INC., priority 1994, dated 1996)

What was measured:
[1] = tested on: Fusarium subglutinans f. sp. pini; assay: bioassay based on inhibition of radial growth on potato dextrose agar (colony diameter); format: cell-based, Fusarium subglutinans f. sp. pini (isolate SL-1, UCB); details: for Radical Growth of Fusarium subglutinas f.sp. pini (colony diameter): 18° C, 5 days; for radical growth of Fusarium subglutinans: cinnamic aldehyde in vehicle with or without saponin, glutaraldehyde 2%
Procedure: A bioassay based on inhibition of radial growth of Fusarium subglutinans f. sp. pini was used to test various aldehyde formulations. The bioassay was performed in a double blind fashion under sterile conditions. All concentrations given are those of particular solutions before dilution in the agar. Eight ml of test formulation was pipetted into 200 ml of molten 2% potato dextrose agar (DIFCO), and the mixture was dispersed into 5 plastic petri dishes (25 ml dish). Test formulations of 5 ppm benomyl were used as a positive control and sterile H2O as a negative control. Each of four plates was inoculated at the center with an agar plug transferred from a growing PDA culture of Fusarium subglutinans f. sp. pini (isolate SL-1, UCB) for each test formulation. A fifth plate was left noninoculated as a control for inhibited growth.
All inoculated and non-inoculated plates were incubated at 18° C for 5 days, after which colony diameters were measured. […] No growth of the colony (diameter=0) indicates a maximum growth inhibition.

[2] = at 25°C; cited from earlier work
[3] = vapor pressure; format: physicochemical; details: at 25°C

## CCCCNC(=O)n1c(NC(=O)OC)nc2ccccc21 [Benomyl, reference compound]
[1]; positive control, 5 ppm benomyl, no Cinnamic Aldehyde
  Radical Growth of Fusarium subglutinas f.sp. pini (colony diameter): 0

## O=CCCCC=O [Glutaraldehyde, reference compound]
[1]; 2% glutaraldehyde, no Cinnamic Aldehyde
  Radical Growth of Fusarium subglutinas f.sp. pini (colony diameter): 3.663
[1]; result in words
  radical growth of Fusarium subglutinans: inhibited

## CCCCCCC(C=O)=Cc1ccccc1 [HCA, 2-hexyl-3-phenyl-2-propenal]
[2]
  vapor pressure: 70 x 10^-5 mm Hg

## CCN(CC)c1cccc(C)c1 [N,N-diethyl-m-toluamine, reference compound]
[2]
  vapor pressure: 167 x 10^-5 mm Hg

## cinnamic aldehyde
[1]; Cinnamic Aldehyde 10 ppm in 2% Tween 80, 6% NaHCO3, with Saponin
  Radical Growth of Fusarium subglutinas f.sp. pini (colony diameter): 4.088
[1]; Cinnamic Aldehyde 10 ppm in 2% Tween 80, 6% NaHCO3, no additive, concentration before dilution in agar
  Radical Growth of Fusarium subglutinas f.sp. pini (colony diameter): 4.363
[1]; Cinnamic Aldehyde 100 ppm in 2% Tween 80, 6% NaHCO3, with Saponin
  Radical Growth of Fusarium subglutinas f.sp. pini (colony diameter): 4.300
[1]; Cinnamic Aldehyde 100 ppm in 2% Tween 80, 6% NaHCO3, no additive, concentration before dilution in agar
  Radical Growth of Fusarium subglutinas f.sp. pini (colony diameter): 4.238
[1]; Cinnamic Aldehyde 2,500 ppm in 2% Tween 80, 6% NaHCO3, with Saponin
  Radical Growth of Fusarium subglutinas f.sp. pini (colony diameter): 3.600
[1]; Cinnamic Aldehyde 2,500 ppm in 2% Tween 80, 6% NaHCO3, no additive, concentration before dilution in agar
  Radical Growth of Fusarium subglutinas f.sp. pini (colony diameter): 3.513
[1]; Cinnamic Aldehyde 5000 ppm in 2% Tween 80, 6% NaHCO3, with Saponin
  Radical Growth of Fusarium subglutinas f.sp. pini (colony diameter): 2.913
[1]; Cinnamic Aldehyde 5000 ppm in 2% Tween 80, 6% NaHCO3, no additive, concentration before dilution in agar
  Radical Growth of Fusarium subglutinas f.sp. pini (colony diameter): 2.980
[1]; Cinnamic Aldehyde 12,500 ppm in 2% Tween 80, 6% NaHCO3, with Saponin
  Radical Growth of Fusarium subglutinas f.sp. pini (colony diameter): 0
[1]; Cinnamic Aldehyde 12,500 ppm in 2% Tween 80, 6% NaHCO3, no additive, concentration before dilution in agar
  Radical Growth of Fusarium subglutinas f.sp. pini (colony diameter): 0
[1]; Cinnamic Aldehyde 25,000 ppm in 2% Tween 80, 6% NaHCO3, with Saponin
  Radical Growth of Fusarium subglutinas f.sp. pini (colony diameter): 0
[1]; Cinnamic Aldehyde 25,000 ppm in 2% Tween 80, 6% NaHCO3, no additive, concentration before dilution in agar
  Radical Growth of Fusarium subglutinas f.sp. pini (colony diameter): 0
[1]; result in words, at 12,500 ppm
  Radial growth: completely inhibited
[1]; result in words
  radical growth of Fusarium subglutinans: inhibited
[3]
  vapor pressure relative to HCA: approximately 40 times higher
[2]
  vapor pressure: 2970 x 10^-5 mm Hg
